This is an account of results in publication PMC7774954, “Interactomic affinity profiling by holdup assay: Acetylation and distal residues impact the PDZome-binding specificity of PTEN phosphatase” (PLoS ONE, 2020).

*1 amine or outer side, *2 acyl side, *3 side chain or, on linkers, in order; H or OH if unused. Where a SMILES comes first, the peptide text is derived from it. The star is where a group is joined. X1 = O=C(CCCC[C@@H]1SC[C@@H]2NC(=O)N[C@@H]21)NCCCOCCOCCOCCCN*; Suc = O=C(CCC(=O)[*:2])[*:1]

The target in assay [1] is T1, PTPN13 PDZ 4 (Homo sapiens, UniProt Q12923).
T1 construct: made in house; host or cells: E. coli
T1 sequence (Q12923 1788-1868 limits assumed): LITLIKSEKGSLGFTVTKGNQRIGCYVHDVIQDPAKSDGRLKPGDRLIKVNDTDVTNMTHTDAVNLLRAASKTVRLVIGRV
The assay is described as follows: Holdup assay, PTPN13-4. Conditions: for BI: PDZ domain PTPN13-4. The format is binding. How it is done: The holdup assay was performed on a Tecan freedom Evo200 robot with 384-well plates in singlicate for the three 11-mer PTEN variants and the 13-mer PTEN peptide as described in [31, 32]. Briefly, prior to interaction assay, 2.5 μL of streptavidin resin was saturated in each well with 20 μL of biotinylated PBM peptides (42 μM) and then washed twice with an excess of free biotin, while the reference resin was incubated only with biotin. Right before the holdup experiment, the PDZ library was spiked with an internal standard of lysozyme. Then, the biotin- or PBM-saturated resin was incubated, each in a distinct well of a 384-well plate, with complete cell lysates diluted so that the concentration of the tag-PDZ present in the crude extract is adjusted at 4 μM. After a sufficient time to reach complex equilibrium (15 min.), a fast and mild filtration step is performed and the tag-PDZ concentrations were measured by capillary electrophoresis instrument (LabChip GXII, PerkinElmer, Massachusets, USA). Standard markers were used to convert migration time into molecular weight on the LabChip software and inappropriate molecular weight markers were corrected or excluded.
For filtered data, the BI was extracted with the following equation (Eq 1) that estimates the depleted fraction after superimposition of the sample and reference electropherograms: BI=Iref−Ilig/Iref (1) where Iref and Ilig are the intensities of the tag-PDZ peaks measured, for each PDZ domain/PBM peptide interaction pair, in the biotin reference and the PBM electropherograms, respectively.
BIs were transformed into dissociation constants (KD) using the following formula: KD=([PDZtot]−BI·[PDZtot])·([PBMtot]−BI·[PDZtot])/BI·[PDZtot] (2) where [PDZtot] and [PBMtot] correspond to the total concentrations of the PDZ domain (usually around 4 μM) and the PBM peptide used during the assay. Since the PBMtot concentration in the resin during the holdup assay parameter may differ from one peptide to another and remains unknown, it is impossible to directly convert BI values into KD constants. We systematically determined the KD constants for a subset of PDZ/PBM pairs by competitive FP. […] For each PBM, the average peptide concentration was calculated after outlier rejection based on the absolute distances from the median as compared to three times the standard deviation (3σ rule), with never more than 2 values rejected.

Assay [2] has as its system APBA1-1. Kind of assay: Holdup assay, APBA1-1. The format is binding, human.
Assay [3] has as its target APBA1-2 (Homo sapiens, UniProt Q02410). Kind of assay: Holdup assay, APBA1-2. The format is binding.
Assay [4] deals with T2, CNKSR1-1 (Homo sapiens, UniProt Q969H4).
T2 sequence (Q969H4 1-720): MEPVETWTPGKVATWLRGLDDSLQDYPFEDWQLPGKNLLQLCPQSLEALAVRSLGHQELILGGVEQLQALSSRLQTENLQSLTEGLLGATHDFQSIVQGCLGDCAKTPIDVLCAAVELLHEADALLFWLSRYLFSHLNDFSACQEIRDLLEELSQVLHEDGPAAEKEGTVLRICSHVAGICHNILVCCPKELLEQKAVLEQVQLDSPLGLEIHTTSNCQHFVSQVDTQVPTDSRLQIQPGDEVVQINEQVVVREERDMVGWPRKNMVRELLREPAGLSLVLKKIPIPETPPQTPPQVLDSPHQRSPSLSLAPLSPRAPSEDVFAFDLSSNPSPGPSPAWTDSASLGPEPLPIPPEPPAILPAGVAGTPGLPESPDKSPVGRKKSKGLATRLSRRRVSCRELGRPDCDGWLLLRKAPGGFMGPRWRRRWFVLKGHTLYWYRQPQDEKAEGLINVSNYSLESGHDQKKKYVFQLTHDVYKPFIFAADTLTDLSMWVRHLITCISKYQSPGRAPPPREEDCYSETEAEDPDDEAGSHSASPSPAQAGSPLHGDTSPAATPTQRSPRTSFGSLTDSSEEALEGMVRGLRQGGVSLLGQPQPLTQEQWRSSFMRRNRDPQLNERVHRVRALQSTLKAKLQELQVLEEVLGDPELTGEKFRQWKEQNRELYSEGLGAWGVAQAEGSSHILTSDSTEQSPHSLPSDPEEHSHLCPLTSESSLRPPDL
Kind of assay: Holdup assay, CNKSR1-1. The format is binding.

The subject of assay [5] is CNKSR2-1. Kind of assay: Holdup assay, CNKSR2-1. The format is binding, human.
Assay [6] concerns DEPTOR-1. Kind of assay: Holdup assay, DEPTOR-1. The format is binding, human.
Assay [7] has as its system DLG2-3. The assay is described as follows: Holdup assay, DLG2-3. The format is binding, human.
Assay [8] concerns GIPC3-1. The assay is described as follows: Holdup assay, GIPC3-1. The format is binding, human.
Assay [9] has as its target GRID2IP-2 (Homo sapiens, UniProt A4D2P6). The assay is described as follows: Holdup assay, GRID2IP-2. The format is binding.
For assay [10], the system named is GRIP2-2. The assay is described as follows: Holdup assay, GRIP2-2. The format is binding, human.
For assay [11], the system named is GRIP2-6. Kind of assay: Holdup assay, GRIP2-6. The format is binding, human.
Assay [12] concerns LNX1-1. The assay is described as follows: Holdup assay, LNX1-1. The format is binding, human.
Assay [13] addresses LNX1-4 (Homo sapiens, UniProt Q8TBB1). The assay is described as follows: Holdup assay, LNX1-4. The format is binding.
For assay [14], the system named is MAGI1-4. Kind of assay: Holdup assay, MAGI1-4. The format is binding, human.
Assay [15] addresses MPDZ-10 (Homo sapiens, UniProt O75970). Kind of assay: Holdup assay, MPDZ-10. The format is binding.
Assay [16] concerns the target T3, SCRIB-3 (Homo sapiens, UniProt Q14160).
T3 construct: Representative holdup data recorded for three PDZ domains (MAST2-1, HTRA1-1, SCRIB-3); made in house; host or cells: E. coli
T3 sequence (Q14160 1004-1093 limits assumed): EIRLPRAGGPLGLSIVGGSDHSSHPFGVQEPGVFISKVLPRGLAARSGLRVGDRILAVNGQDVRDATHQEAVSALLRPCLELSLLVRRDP
Kind of assay: Competitive FP, SCRIB-3. The conditions noted are these: SCRIB-3 + 50 nM f16E6. The format is binding. As to the method:
Protein concentrations were determined by far-UV absorption spectroscopy. A detailed protocol has been published previously.

The test system of assay [17] is LMO7-1. Kind of assay: Holdup assay, LMO7-1. The format is binding, human.

Chain of MPDZ-10 (O75970 whole entry): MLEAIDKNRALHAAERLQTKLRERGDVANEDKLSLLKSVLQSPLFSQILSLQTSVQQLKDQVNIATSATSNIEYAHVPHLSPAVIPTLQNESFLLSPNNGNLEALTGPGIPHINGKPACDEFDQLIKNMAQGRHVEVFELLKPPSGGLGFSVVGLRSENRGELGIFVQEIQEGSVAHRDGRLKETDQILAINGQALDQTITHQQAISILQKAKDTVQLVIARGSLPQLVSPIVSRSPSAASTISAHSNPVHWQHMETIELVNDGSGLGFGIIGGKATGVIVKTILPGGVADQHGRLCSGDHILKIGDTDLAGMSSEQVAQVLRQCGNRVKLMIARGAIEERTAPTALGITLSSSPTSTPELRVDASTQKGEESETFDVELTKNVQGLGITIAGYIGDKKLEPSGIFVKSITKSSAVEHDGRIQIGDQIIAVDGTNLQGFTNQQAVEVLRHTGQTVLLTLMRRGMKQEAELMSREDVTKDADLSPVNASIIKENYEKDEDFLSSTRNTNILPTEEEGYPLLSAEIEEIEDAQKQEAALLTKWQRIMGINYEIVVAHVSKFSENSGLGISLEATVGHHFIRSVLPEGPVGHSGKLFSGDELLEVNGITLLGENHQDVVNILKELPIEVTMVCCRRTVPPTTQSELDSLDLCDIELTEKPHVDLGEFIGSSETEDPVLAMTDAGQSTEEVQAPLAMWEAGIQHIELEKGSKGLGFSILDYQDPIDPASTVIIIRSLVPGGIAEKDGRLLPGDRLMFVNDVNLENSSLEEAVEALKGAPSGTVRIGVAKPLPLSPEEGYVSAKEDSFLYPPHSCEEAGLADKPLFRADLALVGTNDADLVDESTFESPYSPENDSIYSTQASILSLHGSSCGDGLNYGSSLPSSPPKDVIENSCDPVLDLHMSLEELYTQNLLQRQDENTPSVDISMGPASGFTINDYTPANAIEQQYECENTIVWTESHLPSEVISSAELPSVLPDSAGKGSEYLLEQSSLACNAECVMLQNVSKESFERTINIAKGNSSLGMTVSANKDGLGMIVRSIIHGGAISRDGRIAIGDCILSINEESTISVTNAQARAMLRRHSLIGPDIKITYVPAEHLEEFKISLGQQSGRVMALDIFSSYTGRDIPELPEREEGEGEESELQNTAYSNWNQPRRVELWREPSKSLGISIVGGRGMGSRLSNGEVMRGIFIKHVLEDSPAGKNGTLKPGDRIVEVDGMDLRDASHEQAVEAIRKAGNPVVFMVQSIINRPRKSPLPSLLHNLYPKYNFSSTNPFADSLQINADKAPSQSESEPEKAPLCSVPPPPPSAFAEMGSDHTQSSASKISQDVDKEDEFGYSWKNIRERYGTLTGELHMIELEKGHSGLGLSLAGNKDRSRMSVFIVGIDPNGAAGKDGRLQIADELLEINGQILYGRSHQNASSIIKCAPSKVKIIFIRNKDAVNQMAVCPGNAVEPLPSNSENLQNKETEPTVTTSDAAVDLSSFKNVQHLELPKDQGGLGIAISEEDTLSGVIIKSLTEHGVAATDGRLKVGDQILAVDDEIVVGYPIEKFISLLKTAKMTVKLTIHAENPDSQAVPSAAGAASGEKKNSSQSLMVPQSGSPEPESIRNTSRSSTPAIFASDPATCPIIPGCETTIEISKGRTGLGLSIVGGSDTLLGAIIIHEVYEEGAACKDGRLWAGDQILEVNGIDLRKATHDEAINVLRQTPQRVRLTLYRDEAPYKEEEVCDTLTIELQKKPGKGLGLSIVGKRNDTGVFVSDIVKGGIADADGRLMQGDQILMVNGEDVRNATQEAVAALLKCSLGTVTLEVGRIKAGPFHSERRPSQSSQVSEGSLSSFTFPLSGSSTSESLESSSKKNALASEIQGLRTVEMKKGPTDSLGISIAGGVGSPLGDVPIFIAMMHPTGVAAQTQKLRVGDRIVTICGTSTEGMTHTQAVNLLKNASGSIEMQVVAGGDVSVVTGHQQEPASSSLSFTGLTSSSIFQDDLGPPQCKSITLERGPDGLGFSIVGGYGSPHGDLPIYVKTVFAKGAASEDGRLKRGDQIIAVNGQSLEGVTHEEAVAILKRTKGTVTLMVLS
Chain of GRID2IP-2 (A4D2P6 whole entry): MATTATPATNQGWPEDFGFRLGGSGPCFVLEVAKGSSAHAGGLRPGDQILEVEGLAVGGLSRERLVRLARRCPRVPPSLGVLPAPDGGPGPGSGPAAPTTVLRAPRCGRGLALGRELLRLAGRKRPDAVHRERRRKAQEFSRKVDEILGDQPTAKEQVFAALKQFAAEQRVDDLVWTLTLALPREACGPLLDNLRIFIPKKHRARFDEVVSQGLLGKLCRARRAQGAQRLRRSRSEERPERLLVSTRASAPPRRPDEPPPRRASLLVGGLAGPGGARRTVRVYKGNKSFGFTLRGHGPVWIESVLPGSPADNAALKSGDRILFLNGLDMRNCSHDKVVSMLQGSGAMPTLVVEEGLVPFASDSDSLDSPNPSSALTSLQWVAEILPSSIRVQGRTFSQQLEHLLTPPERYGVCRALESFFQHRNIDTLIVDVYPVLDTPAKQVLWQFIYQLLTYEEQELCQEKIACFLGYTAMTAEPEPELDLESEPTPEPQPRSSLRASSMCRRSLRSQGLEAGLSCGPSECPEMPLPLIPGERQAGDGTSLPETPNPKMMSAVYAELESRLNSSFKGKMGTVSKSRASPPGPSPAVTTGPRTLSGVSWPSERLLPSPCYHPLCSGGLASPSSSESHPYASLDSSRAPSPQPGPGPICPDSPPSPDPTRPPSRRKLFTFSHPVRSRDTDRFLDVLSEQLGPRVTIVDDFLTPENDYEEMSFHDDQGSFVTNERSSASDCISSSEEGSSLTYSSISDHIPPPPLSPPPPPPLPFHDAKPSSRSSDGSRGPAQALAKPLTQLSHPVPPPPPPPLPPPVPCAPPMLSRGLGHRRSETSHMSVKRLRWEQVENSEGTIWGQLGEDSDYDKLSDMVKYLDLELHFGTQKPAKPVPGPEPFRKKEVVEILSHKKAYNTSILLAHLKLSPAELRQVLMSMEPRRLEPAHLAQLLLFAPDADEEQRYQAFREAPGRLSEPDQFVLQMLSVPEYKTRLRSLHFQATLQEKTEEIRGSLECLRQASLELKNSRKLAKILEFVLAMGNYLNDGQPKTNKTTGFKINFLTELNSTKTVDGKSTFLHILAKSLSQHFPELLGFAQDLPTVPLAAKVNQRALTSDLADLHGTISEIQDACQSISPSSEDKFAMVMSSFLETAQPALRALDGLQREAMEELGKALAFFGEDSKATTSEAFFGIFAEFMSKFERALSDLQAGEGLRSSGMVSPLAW
Chain of LNX1-4 (Q8TBB1 638-723): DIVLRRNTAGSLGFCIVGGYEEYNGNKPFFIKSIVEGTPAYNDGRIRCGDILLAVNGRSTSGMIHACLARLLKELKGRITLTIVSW
Chain of APBA1-2 (Q02410 747-822): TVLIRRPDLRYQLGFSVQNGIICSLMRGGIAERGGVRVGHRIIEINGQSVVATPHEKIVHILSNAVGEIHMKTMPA

In general, Kd refers to the concentration at which binding is half-saturated. Low values mean a tighter complex, high ones a looser complex. As to `CC[C@H](C)[C@H](NC(=O)[C@H](CCC(N)=O)NC(=O)[C@@H](NC(=O)[C@H](Cc1c[nH]cn1)NC(=O)[C@H](CCC(N)=O)NC(=O)[C@H](CC(=O)O)NC(=O)[C@H](CCC(=O)O)NC(=O)[C@H](CC(=O)O)NC(=O)[C@H](Cc1ccccc1)NC(=O)[C@@H]1CCCN1C(=O)CCC(=O)NCCCOCCOCCOCCCNC(=O)CCCC[C@@H]1SC[C@@H]2NC(=O)N[C@@H]21)[C@@H](C)O)C(=O)N[C@H](C(=O)N[C@@H](CCCCN)C(=O)N[C@H](C(=O)O)C(C)C)[C@@H](C)O` [PTEN_13] ({X1-Suc}-PFDEDQHTQITKV-OH), the values for the Kd in [1], in assay [13] and in [15] were 35.8 µM, 25.5 µM and 15.5 µM, respectively. The BI in [1] was 0.306; in assay [2], -0.05; in assay [3] it was 0.184; in assay [4], -0.076; in assay [5], -0.021; in assay [6], -0.005. The BI is reported as 0.083 in assay [7]; 0.032 in assay [8]; -0.012 in assay [9]; -0.021 in [10]; -0.013 in assay [11]; 0.021 in [12]. For the same compound, the BI in [13] was determined as 0.378; in assay [14] it was 0.094; in assay [15], 0.493. In addition, the LogKD in assay [4] and in [9] was 3.826 each time.

In the case of `CC[C@H](C)[C@H](NC(=O)[C@H](CCC(N)=O)NC(=O)[C@@H](NC(=O)[C@H](Cc1c[nH]cn1)NC(=O)[C@H](CCC(N)=O)NC(=O)[C@H](CC(=O)O)NC(=O)[C@H](CCC(=O)O)NC(=O)[C@H](CC(=O)O)NC(=O)CCC(=O)NCCCOCCOCCOCCCNC(=O)CCCC[C@@H]1SC[C@@H]2NC(=O)N[C@@H]21)[C@@H](C)O)C(=O)N[C@H](C(=O)N[C@@H](CCCCN)C(=O)N[C@H](C(=O)O)C(C)C)[C@@H](C)O` [PTEN_11], the “binding by holdup and competitive FP (in words)” value in assay [16] was “non-binding”. In [17], the BI is recorded as -0.045 and the LogKD was 3.519.

For `CC[C@H](C)[C@H](NC(=O)[C@H](CCC(N)=O)NC(=O)[C@@H](NC(=O)[C@H](Cc1c[nH]cn1)NC(=O)[C@H](CCC(N)=O)NC(=O)[C@H](CC(=O)O)NC(=O)[C@H](CCC(=O)O)NC(=O)[C@H](CC(=O)O)NC(=O)CCC(=O)NCCCOCCOCCOCCCNC(=O)CCCC[C@@H]1SC[C@@H]2NC(=O)N[C@@H]21)[C@@H](C)O)C(=O)N[C@H](C(=O)N[C@@H](CCCCNC(C)=O)C(=O)N[C@H](C(=O)O)C(C)C)[C@@H](C)O` [PTEN_Ac], the Kd was 10.4 µM in assay [1] and 41.2 µM in assay [15]. Besides, the BI was 0.707 in assay [1]; -0.002 in assay [2]; 0.116 in assay [4]; -0.046 in [6]; -0.084 in assay [11]; 0.391 in [15]. Also, the “binding of PTPN13-4 (in words)” value in assay [1] (PTPN13-4) is reported as “PTPN13-4 binds to PTEN_Ac”. In addition, the LogKD in assay [2], in [6] and in assay [11] was 3.605 in each case.
